The text below walks through data of US11814367B2, “Inhibitors of glycogen synthase 1 (GYS1) and methods of use thereof” (Maze Therapeutics, Inc., priority 2021, dated 2023).

In assay [1] the target is hGYS1 enzyme (recombinant hGYS1/GN1 protein) (Homo sapiens (Human), UniProt P13807). Put plainly: GYS1 coupled enzyme assay (PK/LDH). Type of assay: biochemical. Conditions: hGYS1/GN1 50 nM, UDP-Glucose 0.8 mM, G6P 1 mM; geometric mean of at least 2 runs.
Assay [2] relates to hGYS1 enzyme / glycogen synthesis in HeLa cells. Description: GYS1 cell based assay (glycogen synthesis, Glucose-glo). Also noted: species or system human. Conditions: Homo sapiens, HeLa, 24 h, 24 h incubation, 20 mM glucose, geometric mean of at least 2 runs. Put shortly: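 HeLa cells starved 24 h in medium containing only 1× Glutamax were plated onto compound in medium with 20 mM glucose (1% DMSO final) for 24 h, 37 °C, 5% CO2. Acid lysates were Tris-quenched, glucoamylase-digested (pH 5.3, 1 h, 37 °C) and read by Glucose-glo luminescence. IC50 came from Hill fits, as geometric mean of ≥2 runs.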

The target in assay [3] is hGYS2 enzyme (recombinant hGYS2/GN1 protein) (Homo sapiens (Human), UniProt P54840). Description: GYS2 coupled enzyme assay (PK/LDH). Type of assay: biochemical. Conditions: geometric mean of at least 2 assay runs on separate days, read-out: Avg_IC50. Put shortly: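 IC50 came from Hill fits of duplicate percent inhibition, based on control-normalized slopes of 340 nm NADH decline read each minute for 10 min. The reaction held recombinant hGYS2/GN1 (200 nM) with glycogen, UDP-glucose, G6P and PEP, plus PK/LDH coupling at pH 7.5 and 2.5% DMSO.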
hGYS2 enzyme (recombinant hGYS2/GN1 protein), sequence (P54840 whole entry): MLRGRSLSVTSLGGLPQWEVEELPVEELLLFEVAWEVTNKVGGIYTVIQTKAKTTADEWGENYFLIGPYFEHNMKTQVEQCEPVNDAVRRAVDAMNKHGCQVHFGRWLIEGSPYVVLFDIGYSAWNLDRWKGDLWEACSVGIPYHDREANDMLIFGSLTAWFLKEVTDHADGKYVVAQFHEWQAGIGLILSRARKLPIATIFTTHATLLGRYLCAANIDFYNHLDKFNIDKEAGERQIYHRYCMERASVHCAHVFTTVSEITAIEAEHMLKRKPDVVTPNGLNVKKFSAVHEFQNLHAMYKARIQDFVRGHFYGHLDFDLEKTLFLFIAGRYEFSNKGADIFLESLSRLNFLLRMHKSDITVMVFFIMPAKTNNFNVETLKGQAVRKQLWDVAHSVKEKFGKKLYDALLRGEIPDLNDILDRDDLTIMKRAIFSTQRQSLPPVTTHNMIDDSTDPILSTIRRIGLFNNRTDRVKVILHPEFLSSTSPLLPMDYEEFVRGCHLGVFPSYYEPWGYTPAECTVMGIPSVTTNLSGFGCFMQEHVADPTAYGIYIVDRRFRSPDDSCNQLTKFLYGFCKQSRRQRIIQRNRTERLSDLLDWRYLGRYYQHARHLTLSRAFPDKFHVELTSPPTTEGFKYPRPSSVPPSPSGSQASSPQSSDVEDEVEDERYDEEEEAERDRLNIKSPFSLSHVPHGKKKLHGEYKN
hGYS2 enzyme (recombinant hGYS2/GN1 protein), sequence (P46976 whole entry partner): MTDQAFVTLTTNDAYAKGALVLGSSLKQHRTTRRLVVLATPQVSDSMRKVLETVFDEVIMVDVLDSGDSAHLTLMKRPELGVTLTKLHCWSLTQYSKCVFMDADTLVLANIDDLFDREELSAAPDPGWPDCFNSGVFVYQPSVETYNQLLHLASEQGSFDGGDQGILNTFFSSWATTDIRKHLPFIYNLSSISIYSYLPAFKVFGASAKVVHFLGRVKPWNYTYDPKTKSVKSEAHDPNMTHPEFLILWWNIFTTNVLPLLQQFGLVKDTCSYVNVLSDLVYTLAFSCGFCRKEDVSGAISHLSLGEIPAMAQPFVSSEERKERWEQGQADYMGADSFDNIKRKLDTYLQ

hGYS1 enzyme (recombinant hGYS1/GN1 protein), sequence (P13807 whole entry): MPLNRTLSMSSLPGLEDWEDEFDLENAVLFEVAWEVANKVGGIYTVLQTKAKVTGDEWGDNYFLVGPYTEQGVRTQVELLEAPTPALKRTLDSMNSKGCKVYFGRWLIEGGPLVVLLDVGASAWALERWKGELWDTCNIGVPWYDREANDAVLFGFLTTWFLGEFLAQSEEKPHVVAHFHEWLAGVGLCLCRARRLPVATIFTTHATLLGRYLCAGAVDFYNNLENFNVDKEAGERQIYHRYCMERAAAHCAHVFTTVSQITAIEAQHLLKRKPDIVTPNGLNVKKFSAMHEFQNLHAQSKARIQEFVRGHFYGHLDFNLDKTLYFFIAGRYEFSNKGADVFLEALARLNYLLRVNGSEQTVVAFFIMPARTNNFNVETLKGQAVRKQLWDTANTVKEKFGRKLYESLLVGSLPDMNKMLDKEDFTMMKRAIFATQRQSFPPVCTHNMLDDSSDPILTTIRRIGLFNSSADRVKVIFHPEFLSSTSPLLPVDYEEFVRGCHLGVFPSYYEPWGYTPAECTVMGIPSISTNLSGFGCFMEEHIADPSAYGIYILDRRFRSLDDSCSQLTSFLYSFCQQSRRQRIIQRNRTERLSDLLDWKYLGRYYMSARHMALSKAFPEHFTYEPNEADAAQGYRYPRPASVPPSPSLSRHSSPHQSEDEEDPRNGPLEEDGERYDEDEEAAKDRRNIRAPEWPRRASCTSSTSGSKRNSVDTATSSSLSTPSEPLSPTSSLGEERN
hGYS1 enzyme (recombinant hGYS1/GN1 protein), sequence (P46976 whole entry partner): as the sequence (P46976 whole entry partner) above

Take `O=C(N[C@@H](c1ccccc1)c1ccc(C2CC2)c(F)c1)[C@@H]1C[C@@H](F)CN1C(=O)Cn1nnc2ccccc21` [Compound 450, (2S,4R)-1-[2-(1H-1,2,3-benzotriazol-1-yl)acetyl]-N-[(S)-(4-cyclopropyl-3-fluorophenyl)(phenyl)methyl]-4-fluoropyrrolidine-2-carboxamide]: the IC50 in assay [1] is 94 nM; in assay [2], 1730 nM; in assay [3], over 100000 nM.
As to `O=C(N[C@@H](c1ccccc1)c1ccc(C2CC2)c(F)c1)[C@@H]1C[C@@H](F)CN1C(=O)COC(=O)N1CCC1` [Compound 451, 2-[(2S,4R)-2-{[(S)-(4-cyclopropyl-3-fluorophenyl)(phenyl)methyl]carbamoyl}-4-fluoropyrrolidin-1-yl]-2-oxoethyl azetidine-1-carboxylate], the IC50 in assay [1] was 95 nM; in assay [2] it was 1570 nM; in assay [3], over 100000 nM.
In the case of `O=C(N[C@@H](c1ccccc1)c1ccc(C2CC2)c(F)c1)[C@@H]1C[C@@H](F)CN1C(=O)CNC(=O)N1CCOCC1` [Compound 452, N-{2-[(2S,4R)-2-{[(S)-(4-cyclopropyl-3-fluorophenyl)(phenyl)methyl]carbamoyl}-4-fluoropyrrolidin-1-yl]-2-oxoethyl} morpholine-4-carboxamide], the IC50 was 40 nM in assay [1], 980 nM in assay [2] and over 100000 nM in assay [3].
In the case of `O=C(N[C@@H](c1ccccc1)c1ccc(C2CC2)c(F)c1)[C@@H]1C[C@@H](F)CN1C(=O)CN1Cc2ccccc2C1=O` [Compound 453, (2S,4R)-N-[(S)-(4-cyclopropyl-3-fluorophenyl)(phenyl)methyl]-4-fluoro-1-[2-(1-oxo-2,3-dihydro-1H-isoindol-2-yl)acetyl] pyrrolidine-2-carboxamide], the values for the IC50 in assay [1], in assay [2] and in assay [3] were 77 nM, 1840 nM and over 100000 nM, respectively.
For the molecule `O=C(N[C@@H](c1ccccc1)c1ccc(C2CC2)c(F)c1)[C@@H]1C[C@@H](F)CN1C(=O)CN1C(=O)Cc2ccccc21` [Compound 454, (2S,4R)-N-[(S)-(4-cyclopropyl-3-fluorophenyl)(phenyl)methyl]-4-fluoro-1-[2-(2-oxo-2,3-dihydro-1H-indol-1-yl)acetyl]pyrrolidine-2-carboxamide], the results for the IC50 in assay [1], in assay [2] and in assay [3] were 72 nM, 1600 nM and over 100000 nM, respectively.
For the molecule `CN1C(=O)C(CC(=O)N2C[C@H](F)C[C@H]2C(=O)N[C@@H](c2ccccc2)c2ccc(C3CC3)c(F)c2)c2ccccc21` (stereo partly drawn) [Compound 455, (2S,4R)-N-[(S)-(4-cyclopropyl-3-fluorophenyl)(phenyl)methyl]-4-fluoro-1-[2-(1-methyl-2-oxo-2,3-dihydro-1H-indol-3-yl)acetyl]pyrrolidine-2-carboxamide], the IC50 in assay [1] was 291 nM; in assay [2], 3620 nM; in assay [3], over 100000 nM.
Consider `O=C(N[C@@H](c1ccccc1)c1ccc(C2CC2)c(F)c1)[C@@H]1C[C@@H](F)CN1C(=O)Cn1c(=O)[nH]c2ccccc21` [Compound 456, (2S,4R)-N-[(S)-(4-cyclopropyl-3-fluorophenyl)(phenyl)methyl]-4-fluoro-1-[2-(2-oxo-2,3-dihydro-1H-1,3-benzodiazol-1-yl)acetyl]pyrrolidine-2-carboxamide], for which the figures for the IC50 in assay [1], in assay [2] and in assay [3] were 55 nM, 1080 nM and over 100000 nM, respectively.
Take `Cn1c(=O)n(CC(=O)N2C[C@H](F)C[C@H]2C(=O)N[C@@H](c2ccccc2)c2ccc(C3CC3)c(F)c2)c2ccccc21` [Compound 457, (2S,4R)-N-[(S)-(4-cyclopropyl-3-fluorophenyl)(phenyl)methyl]-4-fluoro-1-[2-(3-methyl-2-oxo-2,3-dihydro-1H-1,3-benzodiazol-1-yl)acetyl] pyrrolidine-2-carboxamide]: the IC50 in assay [1] is 32 nM; in assay [2] it was 720 nM; in assay [3], over 100000 nM.
Regarding `O=C(N[C@@H](c1ccccc1)c1ccc(C2CC2)c(F)c1)[C@@H]1C[C@@H](F)CN1C(=O)Cc1n[nH]c2ccccc12` [Compound 458, (2S,4R)-N-[(S)-(4-cyclopropyl-3-fluorophenyl)(phenyl)methyl]-4-fluoro-1-[2-(1H-indazol-3-yl)acetyl]pyrrolidine-2-carboxamide], the values for the IC50 in assay [1], in assay [2] and in assay [3] were 71 nM, 1330 nM and over 100000 nM, respectively.
Consider `Cn1nc(CC(=O)N2C[C@H](F)C[C@H]2C(=O)N[C@@H](c2ccccc2)c2ccc(C3CC3)c(F)c2)c2ccccc21` [Compound 459, (2S,4R)-N-[(S)-(4-cyclopropyl-3-fluorophenyl)(phenyl)methyl]-4-fluoro-1-[2-(1-methyl-1H-indazol-3-yl)acetyl]pyrrolidine-2-carboxamide], for which the IC50 in assay [1] was 28 nM; in assay [2], 750 nM; in assay [3], over 100000 nM.
Consider `Cn1c(CC(=O)N2C[C@H](F)C[C@H]2C(=O)N[C@@H](c2ccccc2)c2ccc(C3CC3)c(F)c2)cc2ccccc21` [Compound 462, (2S,4R)-N-[(S)-(4-cyclopropyl-3-fluorophenyl)(phenyl)methyl]-4-fluoro-1-[2-(1-methyl-1H-indol-2-yl)acetyl]pyrrolidine-2-carboxamide], for which the IC50 in assay [1] is 24 nM; in assay [2], 640 nM; in assay [3] it was over 100000 nM.
Consider `Cn1cc(CC(=O)N2C[C@H](F)C[C@H]2C(=O)N[C@@H](c2ccccc2)c2ccc(C3CC3)c(F)c2)c2ccccc21` [Compound 463, (2S,4R)-N-[(S)-(4-cyclopropyl-3-fluorophenyl)(phenyl)methyl]-4-fluoro-1-[2-(1-methyl-1H-indol-3-yl)acetyl]pyrrolidine-2-carboxamide], for which the IC50 in assay [1] is 25 nM; in assay [2], 670 nM; in assay [3], over 100000 nM.
The like results for `Cc1nc2ccccc2n1CC(=O)N1C[C@H](F)C[C@H]1C(=O)N[C@@H](c1ccccc1)c1ccc(C2CC2)c(F)c1` [Compound 464, (2S,4R)-N-[(S)-(4-cyclopropyl-3-fluorophenyl)(phenyl)methyl]-4-fluoro-1-[2-(2-methyl-1H-1,3-benzodiazol-1-yl)acetyl]pyrrolidine-2-carboxamide] were, in that order, 23 nM, 650 nM and over 100000 nM.
With `O=C(N[C@@H](c1ccccc1)c1ccc(C2CC2)c(F)c1)[C@@H]1C[C@@H](F)CN1C(=O)CN1CCNCC1=O` [Compound 465, (2S,4R)-N-[(S)-(4-cyclopropyl-3-fluorophenyl)(phenyl)methyl]-4-fluoro-1-[2-(2-oxopiperazin-1-yl)acetyl]pyrrolidine-2-carboxamide], the IC50 in assay [1] is 547 nM; in assay [2], 6040 nM; in assay [3], over 100000 nM.
Turning to `O=C(N[C@@H](c1ccccc1)c1ccc(C2CC2)c(F)c1)[C@@H]1C[C@@H](F)CN1C(=O)CN1CCN(CC(F)(F)F)CC1=O` [Compound 466, (2S,4R)-N-[(S)-(4-cyclopropyl-3-fluorophenyl)(phenyl)methyl]-4-fluoro-1-{2-[2-oxo-4-(2,2,2-trifluoroethyl)piperazin-1-yl]acetyl}pyrrolidine-2-carboxamide], the IC50 is 238 nM in assay [1], 2320 nM in assay [2] and over 100000 nM in assay [3].
With `O=C1Nc2ccccc2C1CC(=O)N1C[C@H](F)C[C@H]1C(=O)N[C@@H](c1ccccc1)c1ccc(C2CC2)c(F)c1` (stereo partly drawn) [Compound 467, (2S,4R)-N-[(S)-(4-cyclopropyl-3-fluorophenyl)(phenyl)methyl]-4-fluoro-1-[2-(2-oxo-2,3-dihydro-1H-indol-3-yl)acetyl]pyrrolidine-2-carboxamide], the IC50 in assay [1] is 324 nM; in assay [2] it was 4810 nM; in assay [3], over 100000 nM.
With `Cc1cn(CC(=O)N2C[C@H](F)C[C@H]2C(=O)N[C@@H](c2ccccc2)c2ccc(C3CC3)c(F)c2)cn1` [Compound 468, (2S,4R)-N-[(S)-(4-cyclopropyl-3-fluorophenyl)(phenyl)methyl]-4-fluoro-1-[2-(4-methyl-1H-imidazol-1-yl)acetyl]pyrrolidine-2-carboxamide], the figures for the IC50 in assay [1], in assay [2] and in assay [3] were 91 nM, 1430 nM and over 100000 nM, respectively.
In the case of `CCn1cc(NCC(=O)N2C[C@H](F)C[C@H]2C(=O)N[C@@H](c2ccccc2)c2ccc(C3CC3)c(F)c2)nn1` [Compound 469, (2S,4R)-N-[(S)-(4-cyclopropyl-3-fluorophenyl)(phenyl)methyl]-1-{2-[(1-ethyl-1H-1,2,3-triazol-4-yl)amino]acetyl}-4-fluoropyrrolidine-2-carboxamide], the figures for the IC50 in assay [1], in assay [2] and in assay [3] were 61 nM, 1180 nM and over 100000 nM, respectively.
The like results for `CCn1ncc(NCC(=O)N2C[C@H](F)C[C@H]2C(=O)N[C@@H](c2ccccc2)c2ccc(C3CC3)c(F)c2)n1` [Compound 470, (2S,4R)-N-[(S)-(4-cyclopropyl-3-fluorophenyl)(phenyl)methyl]-1-{2-[(2-ethyl-2H-1,2,3-triazol-4-yl)amino]acetyl}-4-fluoropyrrolidine-2-carboxamide] were, in that order, 82 nM, 960 nM and over 100000 nM.
